Experimental data: patent publication US9738684B2, “N-terminally modified linear and branched polyamine conjugated peptidomimetics as antimicrobials agents” (COUNCIL OF SCIENTIFIC & INDUSTRIAL RESEARCH, priority 2015, dated 2017)
≈ marks a conversion by molar mass, not a printed value.

Columns and labels:
[1] = system: S. aureus (ATCC 29213); experiment: MIC, serial broth dilution; format: cell-based, Staphylococcus aureus
Experimental: (§1) The peptidomimetics designed in present invention were evaluated as antibacterial therapeutics against a broad range of bacterial strains by broth microdilution method. The antibacterial activity of the peptidomimetics was reported in terms of the minimum inhibitory concentrations (MIC).
(§2) Following bacterial strains were used in this study: S. aureus (ATCC 29213), methicillin resistant S. aureus (ATCC 33591), Staphylococcus epidermidis (ATCC 12228), methicillin resistant Staphylococcus epidermidis(ATCC 51625), Enterococcus faecalis (ATCC 7080), Escherichia coli (ATCC 11775), and Acinetobacter baumannii (ATCC 19606). Antibacterial activity was evaluated using a modified serial broth dilution method in accordance with Clinical Laboratory Standard Institute guidelines [Methods for dilution antimicrobial susceptibility tests for bacteria that grow aerobically-7th ed. Approved standard M7-A7. Clinical and Laboratory Standards Institute, Wayne, Pa., Biochim. Biophys. Acta 1798:1864-1875, 2010.]. Briefly, the inoculums were prepared from mid-log phase bacterial cultures. Peptidomimetics were incubated with bacterial suspension in Muller Hinton broth media (10^5 CFU/mL) in 96 well microtitre plate. The plates were incubated overnight with agitation (200 rpm) at 37° C. After 18 h, absorbance was measured at 630 nm. Cultures without test peptidomimetics were used as positive control. Un-inoculated Mueller Hinton Broth (MHB) was used as negative control. Tests were carried out in duplicate on at least three different days. […] For comparison standard peptide antibiotics vancomycin (VAN) and polymyxin B (PMB) were also assayed under identical conditions (Table 2). […] Further, antibacterial activity of active peptidomimetics 1c and 1d were also evaluated against MRSA in presence of 25% v/v human serum as well as bovine serum.

[2] = system: methicillin resistant S. aureus (ATCC 33591); experiment: MIC, serial broth dilution; format: cell-based, Staphylococcus aureus; conditions: 18 h
Experimental: as §1, §2

[3] = system: Gram-positive bacterial strains; experiment: Antibacterial activity; format: cell-based
Experimental: as §2

[4] = system: MRSA; experiment: Membrane depolarization with DiSC3(5) dye; format: cell-based, Staphylococcus aureus; conditions: up to the highest concentration tested
Experimental: For determination of membrane depolarizing ability of designed peptidomimetics, a membrane potential sensitive dye DiSC3(5) was used as described previously with minor modifications [Org Biomol. Chem. 10: 8326-8335, 2012; J. Am. Chem. Soc., 132: 18417-18428, 2010.]. Briefly, overnight grown MRSA was sub cultured into MHB for 2-3 h at 37° C. to obtain mid-log phase cultures. The cells were centrifuged at 4000 rpm for 10 min at 25° C., washed, and re-suspended into respiration buffer (5 mM HEPES, 20 mM glucose, pH 7.4) to obtain a diluted suspension of OD600˜0.05. Then DiSC3(5) [0.18 μM in DMSO], was added to 500 μL aliquotes of the re-suspended cells and allowed to stabilize for 1 h. Baseline fluorescence was acquired using a Edinburg F900 spectrofluorometer by excitation at 622 nm and emission at 670 nm in a 1 cm path length cuvette. Bandwidth of 5 nm was employed for excitation and emission. Subsequently, increasing concentrations of test peptidomimetics were added to the stabilized cells and the increase of fluorescence on account of the de-quenching of DiSC3(5) dye was measured after every 2 min to obtain the maximal depolarization. Increase in relative fluorescence unit (RFU) was plotted against increasing concentrations of different peptidomimetics or PMB. […] The increase in fluorescence for lipid tagged peptidomimetics was concentration dependent up to 9.9 μg/mL and henceforth, got saturated resulting into plateau like dose response curves. The experiment was repeated twice on two consecutive days and produced similar results.

[5] = system: human red blood cells (hRBC); experiment: Hemolytic activity; format: cell-based; conditions: 250 μg/mL, 1 h at 37° C.
Experimental: Hemolytic activity of the peptidomimetics was evaluated on human red blood cells (hRBC) as described previously with minor modifications [FEBS J, 273:4040-4054, 2006; Biochim Biophys Acta., 1798:1864-1875, 2010]. Briefly, 100 μL of fresh hRBC suspension 4% v/v in NaCl/Pi (35 mM phosphate buffer, 150 mM NaCl, pH 7.2) was placed in a 96-well plate. After incubation of the peptidomimetics (100 μL) in the hRBC suspension for 1 h at 37° C., the plates were centrifuged and supernatant (100 μL) was transferred to fresh 96-well plate. Absorbance was read at 540 nm using ELISA plate reader (Molecular Devices). Percent hemolysis was calculated using the following formula: % hemolysis=100[(A−A0)/(At−A0)]
Where, A represents absorbance of sample wells at 540 nm. Also A0 and At represents 0% and 100% hemolysis determined in NaCl/Pi and 1% Triton X-100, respectively (Table 2). […] Peptidomimetics 1e and 1f caused 31% and 30% hemolysis at 250 μg/mL. Peptidomimetics 2d, 2e and 2f caused significant hemolysis with 83%, 96% and 88% damage to hRBCs at […] respectively.

[6] = system: Staphylococcus epidermidis (ATCC 12228); experiment: MIC, serial broth dilution; format: cell-based
Experimental: as §1, §2

[7] = system: Enterococcus faecalis (ATCC 7080); experiment: MIC, serial broth dilution; format: cell-based; conditions: MHB, 18 h, 37° C.
Experimental: as §1, §2

[8] = system: MRSA (ATCC 33591) biofilm; experiment: Confocal laser scanning microscopy of biofilm, thickness by z-stacking; format: cell-based, Staphylococcus aureus; conditions: for confocal observation of mature biofilm: 24 h preformed biofilm
Source text: For visualization of biofilm and validation of AB and CV assay we performed confocal microscopy. For this biofilm formation was induced on glass cover slips in a 6-well plate. The biofilm on cover slips were washed twice with sterile NaCl/Pi buffer and stained with a Live/Dead kit reagent (Invitrogen, Molecular Probes, Eugene, Oreg., USA) following the manufacturer's instructions. This stain contains DNA binding dyes SYTO 9 (green fluorescent) and propidium iodide (PI; red fluorescent). When used alone, SYTO 9 stains all bacteria in a population, those with intact as well as damaged membranes. In contrast, PI penetrates only bacteria with damaged membranes, causing a reduction in the SYTO 9 stain (green fluorescence). The biofilms were examined with an Olympus flow view FV1000 (confocal laser scanning microscope, CLSM). The experiment was repeated three times on three different days and representative data is presented here.
We next measured the thickness of biofilm using z-stacking in confocal microscopy. […] At MICb, 1c and 1d prevented formation of biofilm in which very few cells were adhered to substratum with observed average thickness of 3.9±1.1 μm and 3.5±0.6 μm, respectively. Furthermore, at sub-MICb concentration the observed thicknesses were 5.2±0.3 μm and 5.8±0.4 μm (FIG. 7A.b and FIG. 7A.d).

[9] = system: Escherichia coli (ATCC 11775); experiment: MIC, serial broth dilution; format: cell-based; conditions: Escherichia coli, ATCC11775, 18 h, read-out: MIC E. coli. (ATCC 11775)
Experimental: as §1, §2

[10] = system: S. aureus (ATCC 33591); experiment: Resistance development study, serial passage at sub MIC; format: cell-based, Staphylococcus aureus; conditions: 17 serial passages at sub MIC
Experimental: FIG. 5: Illustration of resistance development study in S. aureus (ATCC 33591) after 17 serial passages with sub MIC of 1c/1d or antibiotic treatment. The fold change in MIC is the ratio of the MIC after 17 passages relative to that MIC observed before first passage.
To determine potential of active peptidomimetics against resistance development, in vitro serial passage method at sub inhibitory concentration was done. Briefly, bacterial suspension (100 μL) from duplicate wells at the concentration of sub-MIC was used to inoculate fresh culture. The culture was grown to obtain approximately 10^5 CFU/mL for the next experiment. These bacterial suspensions were then incubated with desired concentration of antibacterial agents for 18 h to determine new MIC. The same sub culturing protocol was used for next 16 passages and MIC was determined using OD630 nm as described previously in the text [Chem. Biol., 20:1286-1295, 2013.]

[11] = system: MRSA (ATCC 33591) biofilm; experiment: 24 h preformed mature biofilm (alamar blue, crystal violet); format: cell-based, Staphylococcus aureus; conditions: Staphylococcus aureus, 24 h, read-out: viable cells in 24 h pre-formed mature biofilm (alamar blue)
Experimental: To evaluate potential of designed active peptidomimetics against MRSA biofilms a methodology as used previously was employed with minor modifications [Antimicrob. Agents Chemother., 57:2726-2737, 2013]. Briefly, freshly inoculated MRSA (ATCC 33591) was grown in biofilm growth media (TSB supplemented with 0.5% w/v NaCl and 0.25% w/v glucose) overnight. Next day, the culture was diluted in fresh biofilm growth media to 10^5 CFU/mL. 200 μl of diluted culture was dispensed in wells of a 96-well polystyrene plate for biofilm formation. […] Biofilm cultures were re-incubated at 37° C. for 24 h. After removal of medium, the biofilms were further washed twice with sterile NaCl/Pi buffer and assessed for metabolic activity (alamar blue assay) and biomass quantification (Crystal violet assay).

[12] = system: Staphylococcus species; experiment: Antibacterial activity; format: cell-based
Experimental: as §2

[13] = system: Gram-negative bacterial strains; experiment: Antibacterial activity; format: cell-based
Experimental: as §2

[14] = system: methicillin resistant Staphylococcus epidermidis (ATCC 51625); experiment: MIC, serial broth dilution; format: cell-based; conditions: Staphylococcus epidermidis, ATCC 51625 / MRSE, 18 h, read-out: MIC MRSE (ATCC 51625)
Experimental: as §1, §2

[15] = system: Acinetobacter baumannii (ATCC 19606); experiment: MIC, serial broth dilution; format: cell-based; conditions: Acinetobacter baumannii, ATCC19606, 18 h, read-out: MIC A. baumannii (ATCC 19606)
Experimental: as §1, §2

[16] = system: MRSA (ATCC 33591); experiment: Planktonic MIC in biofilm media (MICb); format: cell-based, Staphylococcus aureus; conditions: TSB with 0.5% NaCl and 0.25% glucose

SMILES: NCCCNCCCCNCCCNC(=O)C(Cc1c[nH]c2ccccc12)NC(=O)C(N)Cc1c[nH]c2ccccc12 (stereo not shown) [1a]
- MIC S. aureus (ATCC 29213) ([1]; MHB, 18 h, 37° C.): 0.1136 µg/mL (≈ 0.198 µM)
- MIC MRSA (ATCC 33591) ([2]; MHB, 37° C.): 227.2 µg/mL (≈ 395 µM)
- activity against Gram-positive bacterial strains [3]: moderate activity
- change in relative fluorescence unit (RFU), membrane depolarization [4]: only minor increase
- % H, percentage hemolysis of human RBCs [5]: 4%
- MIC S. epidermidis (ATCC 12228) ([6]; MHB, 18 h, 37° C.): 113.6 µg/mL (≈ 198 µM)
- MIC E. facaelis (ATCC 7080) [7]: 0.4545 µg/mL (≈ 0.791 µM)

SMILES: CN[C@H](CC(C)C)C(=O)N[C@H]1C(=O)N[C@@H](CC(N)=O)C(=O)N[C@H]2C(=O)N[C@H]3C(=O)N[C@H](C(=O)N[C@H](C(=O)O)c4cc(O)cc(O)c4-c4cc3ccc4O)[C@H](O)c3ccc(c(Cl)c3)Oc3cc2cc(c3O[C@@H]2O[C@H](CO)[C@@H](O)[C@H](O)[C@H]2O[C@H]2C[C@](C)(N)[C@H](O)[C@H](C)O2)Oc2ccc(cc2Cl)[C@H]1O [VAN, vancomycin, reference compound]
- confocal observation of mature biofilm ([8]; 10×MICb): little effect
- confocal observation of mature biofilm ([8]; 20×MICb): slight decrease in the height of mature biofilm
- average thickness of biofilm, biofilm formation ([8]; MICb, control 14.3±1.4 μm): 11.4±2.9 μm
- thickness of biofilm, biofilm formation ([8]; sub-MICb, control 14.3±1.4 μm): unable to reduce biofilm thickness
- MIC [9]: 0.114 µg/mL (≈ 0.0784 µM)
- MIC ([1]; Staphylococcus aureus, ATCC29213, 18 h, read-out: MIC S. aureus (ATCC 29213)): 0.0004 µg/mL (≈ 0.000276 µM)
- MIC ([2]; Staphylococcus aureus, ATCC 33591 / MRSA, read-out: MIC MRSA (ATCC 33591)): 0.0008 µg/mL (≈ 0.000552 µM)
- increase in MIC after 17 passages [10]: 4 fold
- viability at 20 µg/mL [11]: 77.7 ± 7%
- activity against Staphylococcus species [12]: potent growth inhibition
- growth inhibition of Gram-negative bacterial strains [13]: ineffective
- MIC ([6]; Staphylococcus epidermidis, ATCC12228, 18 h, read-out: MIC S. epidermidis (ATCC 12228)): 0.0004 µg/mL (≈ 0.000276 µM)
- MIC [14]: 0.0008 µg/mL (≈ 0.000552 µM)
- MIC [15]: 0.0568 µg/mL (≈ 0.0392 µM)
- MICb, planktonic MIC in biofilm media [16]: 0.8 µg/mL
